Measured values reported in ChEMBL document CHEMBL5729261, “AMPK activators” (2022).

The compounds below were run against AMP-activated protein kinase (AMPK) alpha-1/beta-1/gamma-1 (Homo sapiens, UniProt P54619+Q13131+Q9Y478) (assay: In Vitro pAMPK1 Kinase Activation Assay: Compound effect on AMPK enzyme activation was determined in a cell-free format with a 12-point concentration curve. The ADP-Glo detection system was used to determine phosphorylation of a SAMS peptide substrate. Recombinant AMPK α1/β1/γ1 complex was pre-activated by phosphorylation with CAMKK2 followed by incubated with compound for 15 minutes prior to the SAMS phosphorylation reaction. Activity curves and EC50 values were fitted by interpolation to an ATP:ADP standard curve as indicated by the ADP-Glo manufacturer using Prism software.).
Sequence of AMP-activated protein kinase (AMPK) alpha-1/beta-1/gamma-1 (P54619 whole entry): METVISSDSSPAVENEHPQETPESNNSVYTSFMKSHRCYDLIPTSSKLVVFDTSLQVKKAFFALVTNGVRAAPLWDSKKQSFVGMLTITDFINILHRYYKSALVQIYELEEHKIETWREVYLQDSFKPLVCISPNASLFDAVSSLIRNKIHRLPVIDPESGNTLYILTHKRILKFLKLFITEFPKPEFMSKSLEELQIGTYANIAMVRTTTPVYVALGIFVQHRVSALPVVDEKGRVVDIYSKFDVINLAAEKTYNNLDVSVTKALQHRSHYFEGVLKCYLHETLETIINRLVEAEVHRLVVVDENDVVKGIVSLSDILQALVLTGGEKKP
Sequence of AMP-activated protein kinase (AMPK) alpha-1/beta-1/gamma-1 (Q9Y478 whole entry): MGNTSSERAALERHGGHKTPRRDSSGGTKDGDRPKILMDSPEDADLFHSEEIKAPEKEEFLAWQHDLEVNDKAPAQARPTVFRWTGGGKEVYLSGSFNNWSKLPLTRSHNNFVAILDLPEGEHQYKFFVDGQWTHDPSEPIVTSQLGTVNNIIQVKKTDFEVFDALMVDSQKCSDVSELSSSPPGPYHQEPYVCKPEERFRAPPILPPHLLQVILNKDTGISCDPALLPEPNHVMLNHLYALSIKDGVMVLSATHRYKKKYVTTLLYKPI
Sequence of AMP-activated protein kinase (AMPK) alpha-1/beta-1/gamma-1 (Q13131 whole entry): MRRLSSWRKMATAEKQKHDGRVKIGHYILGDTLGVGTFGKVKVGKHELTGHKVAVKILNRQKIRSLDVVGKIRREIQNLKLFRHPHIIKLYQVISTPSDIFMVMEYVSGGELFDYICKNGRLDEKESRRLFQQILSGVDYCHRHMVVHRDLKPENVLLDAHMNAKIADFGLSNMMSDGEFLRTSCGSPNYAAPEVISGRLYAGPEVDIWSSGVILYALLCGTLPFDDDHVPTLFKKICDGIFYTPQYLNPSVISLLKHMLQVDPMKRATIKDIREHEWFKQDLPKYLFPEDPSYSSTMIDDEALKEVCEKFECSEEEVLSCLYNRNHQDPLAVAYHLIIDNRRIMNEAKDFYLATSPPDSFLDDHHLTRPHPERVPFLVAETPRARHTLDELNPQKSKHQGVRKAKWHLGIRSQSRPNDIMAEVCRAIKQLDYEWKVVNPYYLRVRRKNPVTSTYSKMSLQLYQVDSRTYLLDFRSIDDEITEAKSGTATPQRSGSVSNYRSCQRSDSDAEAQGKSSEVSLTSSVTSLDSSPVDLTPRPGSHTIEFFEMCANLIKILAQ
Format: protein-complex assay

EC50	SMILES
0.76 nM	O=C(NCC[N+]12CCN(CC1)CC2)c1ccc(-c2ccc(-c3cc4nc(O[C@@H]5CO[C@H]6[C@@H]5OC[C@H]6O)[nH]c4cc3Cl)cc2)cc1
1.08 nM	OCC(CO)NCc1ccc(-c2ccc(-c3cc4nc(O[C@@H]5CO[C@H]6[C@@H]5OC[C@H]6O)[nH]c4cc3Cl)cc2)cc1
0.96 nM	O=C(NCCC[N+]12CCN(CC1)CC2)c1ccc(-c2ccc(-c3cc4nc(O[C@@H]5CO[C@H]6[C@@H]5OC[C@H]6O)[nH]c4cc3Cl)cc2)cc1
1.51 nM	O=S(=O)(NCCOCCO)c1ccc(-c2ccc(-c3cc4nc(O[C@@H]5CO[C@H]6[C@@H]5OC[C@H]6O)[nH]c4cc3Cl)cc2)cc1
